Experimental data taken from EP1577294A1, “S-SUBSTITUTED N-1- (HETERO)ARYL ALKYL-N - (HETERO)ARYL ALKYLYSOTHIOCARBAMIDES, METHOD FOR THE PRODUCTION THEREOF, PHYSIOLOGICALLY ACTIVE S-SUBSTITUTED N-1- (HETERO )ARYL ALKYL-N - (HETERO)ARYL ALKYLYSOTHIOCARBAMIDES,A PHARMACEUTICAL COMPOUND AND CURING METHOD” (Institut Fiziologicheski Aktivnykh Veschestv Rossiyskov …, priority 2002, dated 2004).
Each block holds one compound with its values, some of them ahead of it.

Legend:
[1] = tested on: AMPA/KA receptors; assay: Patch-clamp: potentiation of kainate-induced transmembrane currents in freshly isolated Purkinje neurons; format: cell-based, rat; conditions: for Potentiation of kainate-induced currents (%): Purkinje neurons of the rat cerebellum
Description: (§1) The first was to determine the potentiating effect of new compounds on AMPA- and kainate-induced transmembrane currents in neurons of the Purkinje cerebellum of rats, and also blockade of NMDA-induced currents in the neurons of the cerebral cortex of rats;
(§2) Method for assessing properties of the compounds potentiating AMPA/KA-induced currents and blocking NMDA-induced currents.
The experiments were performed using the patch-clamp method on freshly-isolated Purkinje neurons taken from the cerebellum of rats (aged 14-16 days). A modified method was used for isolation. Slices of cerebellum 400-600 µm in thickness were placed in a thermostat-controlled chamber with a volume of 10 ml. The solution for isolation had the following composition (in mM): NaCl 150.0, KCl 5.0, CaCl2 2.0, MgSO4×7H2O 2.0, HEPES 10.0, glucose 15.0, pH 7.42. The slices were incubated in this solution for 60 minutes, after which this solution was replaced by a similar solution containing pronase (2 mg/ml) and collagenase (1 mg/ml) and incubation was continued for 70 minutes. After washing with the original solution for 20 minutes, the slices were placed in a Petri dish and dissociated mechanically with the aid of a Pasteur pipette. The solutions were continuously bubbled with 100% O2 at t° 34°C. The Purkinje neurons were placed in a working chamber with a volume of 0.6 ml. The working solution has the composition (in mM): NaCl 150.0, KCl 5.0, CaCl2 2.6, MgSO4×7H2O 2.0, HEPES 10.0, glucose 15.0, pH 7.36.
(§3) Transmembrane currents were induced by activation of AMPA/KA receptors by applying solutions of kainic acid, the agonist of these receptors, and by activation of NMDA receptors by applying solutions of N-methyl-D-aspartic acid (NMDA), the agonist of these receptors, using the rapid superfusion method. Currents were recorded with the aid of borosilicate microelectrodes (resistance 1.5-2.5 mohm) filled with the following composition (in mM): KCl 100.0, EGTA 11.0, CaCl2 1.0, MgCl2 1.0, HEPES 10.0, ATP 5.0, pH 7.2.
(§4) An EPC9 (HEKA, Germany) was used for recording. Currents were recorded on a Pentium-100 PC hard disc using the Pulse program, also purchased from the HEKA company. The results were processed with the aid of the Pulsefit program (HEKA).
The application of kainate induces inward transmembrane currents in the Purkinje neurons. Addition of the compounds to the perfusion solution elicits an increase in the amplitude of the currents. This increase depends on the compound, on its concentration, and on the time which has passed since the start of application of the substance.

[2] = tested on: NMDA receptors; assay: Patch-clamp: blockade of NMDA-induced currents in cerebral cortex neurons; format: cell-based, rat; conditions: for Blockade of NMDA-induced currents (%): neurons of the cerebral cortex
Source text: as §1, §2, §3, §4

SMILES: CSC(=NCc1ccccc1)NCc1ccccc1 [Compound 11, S-Methyl-N-benzyl-N'-benzylisothio-carbamide]
Potentiation of kainate-induced currents (%) ([1]; at 0.5-30 µM): 0 at 0.5-30 µM %
Blockade of NMDA-induced currents (%) ([2]; at 0.5-30 µM): 0 at 0.5-30 µM %

SMILES: NS(=O)(=O)c1cc2c(cc1Cl)NC(C1CC3C=CC1C3)NS2(=O)=O (stereo not shown) [Cyclothiazide, reference compound]
Potentiation of kainate-induced currents (%) ([1]; at 1 µM): 20% at 1 µM
Blockade of NMDA-induced currents (%) ([2]; at 1-30 µM): 0 at 1-30 µM %

SMILES: Nc1c2c(nc3ccccc13)CCCC2 [Tacrine, reference compound]
Potentiation of kainate-induced currents (%) ([1]; at 0.5-30 µM): 0 at 0.5-30 µM %
Blockade of NMDA-induced currents (%) ([2]; at 0.5-30 µM): 0 at 0.5-30 µM %

SMILES: CCSC(=NCc1ccccc1)NCc1ccccc1.I [Compound 12, S-Ethyl-N-benzyl-N'-benzylisothiocarbamide hydriodide]
Potentiation of kainate-induced currents (%) ([1]; at 0.5-30 µM): 0 at 0.5-30 µM %
Blockade of NMDA-induced currents (%) ([2]; at 0.5-30 µM): 0 at 0.5-30 µM %

SMILES: CC12CC3CC(C)(C1)CC(N)(C3)C2 [Memantine, reference compound]
Potentiation of kainate-induced currents (%) ([1]; at 30 µM): 15% at 30 µM
Blockade of NMDA-induced currents (%) ([2]; at 17 µM): 50% at 17 µM

Next, values leading:

Potentiation of kainate-induced currents (%) ([1]; at 0.5-30 µM): 0 at 0.5-30 µM %
Blockade of NMDA-induced currents (%) ([2]; at 0.5-30 µM): 0 at 0.5-30 µM %
SMILES: c1ccc(CN=C(NCc2ccccc2)SCc2ccccc2)cc1 [Compound 13, S-Benzyl-N-benzyl-N'-benzylisothiocarbamide]

Potentiation of kainate-induced currents (%) ([1]; at 0.5-30 µM): 0 at 0.5-30 µM %
Blockade of NMDA-induced currents (%) ([2]; at 0.5-30 µM): 0 at 0.5-30 µM %
SMILES: Cl.O=[N+]([O-])c1ccc(CSC(=NCc2ccccc2)NCc2ccccc2)cc1 [Compound 14, S-4-Nitrobenzyl-N-benzyl-N'-benzylisothiocarbamide hydrochloride]

Potentiation of kainate-induced currents (%) ([1]; at 0.5-30 µM): 0 at 0.5-30 µM %
Blockade of NMDA-induced currents (%) ([2]; at 0.5-30 µM): 0 at 0.5-30 µM %
SMILES: Br.O=C(O)c1ccc(CSC(=NCc2ccccc2)NCc2ccccc2)cc1 [Compound 15, S-4-Carboxybenzyl-N-benzyl-N'-benzylisothiocarbamide hydrobromide]

Potentiation of kainate-induced currents (%) ([1]; at 10 µM): 0% at 10 µM
Potentiation of kainate-induced currents (%) ([1]; at 0.5-1.0 µM): 60-100% at 0.5-1.0 µM
Blockade of NMDA-induced currents (%) ([2]; at 0.5 µM): 30-50%
Blockade of NMDA-induced currents (%) ([2]; at 2 µM): 100%
SMILES: Br.C1=CC(SC(=NCc2ccccc2)NCc2ccccc2)CCC1 (stereo not shown) [Compound 17, S-2-Cyclohexenyl-N-benzyl-N'-benzylisothiocarbamide hydrobromide]

Potentiation of kainate-induced currents (%) ([1]; at 0.5-30 µM): 0 at 0.5-30 µM %
Blockade of NMDA-induced currents (%) ([2]; at 0.5-30 µM): 0 at 0.5-30 µM %
SMILES: Br.CCOC(=O)CCSC(=NCc1ccccc1)NCc1ccccc1 [Compound 19, S-2-Ethoxycarbonyl-ethyl-N-benzyl-N'-benzylisothiocarbamide hydrobromide]

increase in kainate-induced currents ([1]; 20 µM, observed range (average given separately)): 8-12%
Potentiation of kainate-induced currents (%) ([1]; at 20 µM (average), hydrobromide): 10% at 20 µM
Potentiation of kainate-induced currents (%) ([1]; at 20 µM (average), listed as compound 18, hydrobromide): 10%
Washing out time that returns the amplitude of the responses to the control value ([1]; kainate-induced currents, after 20 µM): 3 to 5 min
decrease in the NMDA-induced currents ([2]; 3 µM, observed range (average given separately)): 25-35%
Washing out time that returns the amplitude of the NMDA-induced currents to the control value ([2]; NMDA-induced currents, cerebral cortex neurons): 3 to 6 min
Blockade of NMDA-induced currents (%) ([2]; at 3 µM (average), hydrobromide): 30% at 3 µM,
Blockade of NMDA-induced currents (%) ([2]; at 3 µM (average), listed as compound 18, hydrobromide): 30%
Blockade of NMDA-induced currents (%) ([2]; at 10 µM, hydrobromide): 100% at 10 µM
Blockade of NMDA-induced currents (%) ([2]; at 10 µM, listed as compound 18, hydrobromide): 100%
SMILES: Br.c1ccc(CCSC(=NCc2ccccc2)NCc2ccccc2)cc1 [Compound 18, S-2-Phenylethyl-N-benzyl-N'-benzylisothiocarbamide hydrobromide]

Potentiation of kainate-induced currents (%) ([1]; at 0.5-30 µM): 0 at 0.5-30 µM %
Blockade of NMDA-induced currents (%) ([2]; at 0.5-30 µM): 0 at 0.5-30 µM %
SMILES: Br.C=CCSC(=NCc1ccccc1)NCc1ccccc1 [Compound 16, S-Allyl-N-benzyl-N'-benzylisothiocarbamide hydrobromide]
